Tests used:
[1] = tested on: Pseudomonas aeruginosa (ATCC27853); assay: Effect of alternate divalent cations on ATP extraction and detection; format: cell-based; conditions: high (20 mM) divalent cation concentration; approximately 1×10^6 cells per well
Method: To evaluate the effects of alternate divalent cations on ATP extraction and detection at low (0.2 mM) and high (20 mM) divalent cation concentrations, Pseudomonas aeruginosa (ATCC27853) was grown in Mueller Hinton II (MH II) Broth at 37° C. overnight. The overnight culture was diluted 50-fold in fresh MH II Broth and then incubated for several hours to reach log phase. Cells were diluted to approximately 1×10^6 cells per well.

P. aeruginosa = conditions: CDTA added at t=12 minutes, final 20 mM, to mixture with 20 mM MgCl2
Method: Either 100 μl of bacterial culture or 100 μl of a 1×10^−9 M ATP stock (control) was added to 100 μl of the reconstitution reagent and luminescence was measured periodically over a 35 minute time period. The microbial cultures were tested at approximately 10^6 cells per well. Additional CDTA was added at t=12 minutes to each of the samples (final concentration=20 mM CDTA).

S. aureus ATCC 25923 = assay: Bioluminescent detection of bacterial growth as a function of antibiotic dose; format: cell-based; conditions: 19 hours of incubation at 37° C.; ATP detection assay
Method: Four bacterial strains were used to evaluate the relationship between microbial cell number and luminescence. Bacterial strains Escherichia coli (ATCC25922), Staphylococcus aureus (ATCC25923), Pseudomonas aeruginosa (ATCC27853) and Bacillus cereus (ATCC10987) were grown in Mueller Hinton II (MH II) Broth at 37° C. overnight. The overnight culture was diluted 50-fold in fresh MH II Broth and then incubated for several hours to reach log phase. Samples of the culture were serially diluted using MH II Broth in a 96-well plate. […] Luminescence was recorded on a Veritas™ Microplate Luminometer from Turner Biosystems (Sunnyvale, Calif.). S. aureus ATCC 25923 strain was grown in MH II Broth at 37° C. overnight. The overnight culture was diluted 100-fold in fresh MH II Broth and used as inoculum for the antimicrobial screen. Working stocks (50×) of LOPAC compounds and standard antibiotics were prepared in DMSO. Each well of the 96-well multiwell plate contained 245 μl of the inoculum and 5 μl of the 50× working stock. […] One hundred microliters of the culture was taken from each well, and the luciferase detection assay was performed as described in Example 9. Luminescence was measured using a Veritas™ Microplate Luminometer from Turner Biosystems (Sunnyvale, Calif.). […] Luminescence was recorded on a Veritas™ Microplate Luminometer from Turner Biosystems (Sunnyvale, Calif.).

| SMILES | effect on ATP detection (luminescence) [1] | further results |
| --- | --- | --- |
| [Cl][Mn][Cl] [Mn^2+, MnCl2] | impede ATP detection | – |
| O=C(O)CN(CC(=O)O)C1CCCCC1N(CC(=O)O)CC(=O)O (stereo not shown) [CDTA, 1,2-Cyclohexanedinitrilotetraacetic acid] | – | neutralization of inhibitory divalent cation effects on ATP detection (luminescence) (P. aeruginosa): capable of neutralizing the inhibitory effects of divalent cations |
| [Ca+2].[Cl-].[Cl-] [Ca^2+, CaCl2] | impede ATP detection | – |
| Cc1onc(-c2ccccc2)c1C(=O)N[C@@H]1C(=O)N2[C@@H]1SC(C)(C)[C@@H]2C(=O)O [oxacillin] | – | relative percentage of RLU compared to the no-oxacillin control (S. aureus ATCC 25923): dose-dependent effect |

Reference: US7422868B2, “Microbial ATP extraction and detection system” (Promega Corporation, priority 2004, dated 2008)
